Laboratory results taken from paper PMC10082830, “A tailored tetravalent peptide displays dual functions to inhibit amyloid β production and aggregation” (Communications Biology, 2023).
Bridge positions count the residues as written; N and C are the ends. Square brackets hold non-standard residues; d marks the D form. Peptide text beside a SMILES is read from it. I, II: the chains in the order shown. * marks the point of attachment. Cbz = O=C(OCc1ccccc1)*; Ahx = NCCCCCC(=O)O

What was measured:
Aβ40 = biological target: T1, Aβ40 (Homo sapiens, UniProt P05067); assay: ELISA binding between Aβ and LME peptides; conditions: Aβ40, n = 4, read-out: apparent Kd
T1 construct: purchased Peptide Institute
T1 sequence (P05067 672-711 limits assumed): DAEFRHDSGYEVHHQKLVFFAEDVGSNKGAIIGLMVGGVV
Procedure: (§1) The indicated amounts of LME-tet (8.3 µM) or LME-mono (33 µM) were applied onto each well of a regular 96-well ELISA plate (Thermo Fisher Scientific) and incubated overnight for 24 h. After blocking, the plate was incubated with various concentrations of Aβ1–28, Aβ40, or Aβ42 (Peptide Institute) for 2 h at room temperature. Bound Aβ was detected using mouse monoclonal anti-human Aβ antibody 82E1 (Immuno-Biological Laboratories Co., Ltd.) and HRP-conjugated horse anti-mouse IgG antibody (Cell Signaling Technology).

Aβ42 = biological target: T2, Aβ42 (Homo sapiens, UniProt P05067); assay: ELISA binding between Aβ and LME peptides; conditions: Aβ42, n = 3, read-out: apparent Kd
T2 construct: purchased Peptide Institute
T2 sequence (P05067 672-713 limits assumed): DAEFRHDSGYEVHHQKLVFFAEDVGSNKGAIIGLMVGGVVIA
Procedure: as §1

7WD10 cells = assay: Incorporation of biotinylated tetravalent peptides into 7WD10 cells, confocal microscopy; assay type: cell-based, Chinese Hamster; conditions: biotinylated peptide 50 µM, 37 °C, 1 h, Alexa Fluor 488-streptavidin
Procedure: Supplementary Fig. 10: Efficient incorporation of […] into cells.
7WD10 cells were cultured at 37° C for 1 h in the presence of biotinylated LME-tet or PME-tet
(50 µM). Biotinylated peptide was detected using Alexa Fluor 488-conjugated streptavidin.
Fluorescence images were obtained using confocal laser scanning microscopy to assess the
incorporation of tetravalent peptides into cells. The scale bars indicate 10 µm.

[1] = system: β-cleavage of St6gal1 in 7WD10-NotchΔE-St6gal1 cells; assay: β-Secretase assay in cells (St6gal1 cleavage); assay type: cell-based, Chinese Hamster; conditions: 48 h, culture medium, western blot; β-secretase inhibitor II 10 µM
Procedure: (§2) 7WD10 cells were treated with vehicle control or LME-tet at the indicated concentrations for 48 h. Cell lysates were analyzed by western blot. b Effect of LME-tet on production of extracellular sAPPα and sAPPβ Schematic showing α- and β-cleavage sites (top). 7WD10 cells were treated as in (a) and sAPPα and sAPPβ in culture medium were analyzed by western blot (bottom left and right panels, respectively). a, b APP and sAPPα were detected using anti-APP antibody 6E10, and sAPPβ was detected using anti-sAPPβ antibody. Data are graphed as the percentage of the control value, showing the mean ± SE; n = 3–4. Significance vs. vehicle was calculated by ANOVA, followed by one-sided Dunnett’s test; *P < 0.05, **P < 0.01, ***P < 0.001. c Effect of LME-tet on β-cleavage of β-galactoside α-2,6- sialyltransferase 1 (St6gal1) and γ-cleavage of NotchΔE. 7WD10-NotchΔE-St6gal1 cells were treated with LME-tet at the indicated concentrations and β-secretase inhibitor II (βi; 10 µM) for 48 h; culture medium was analyzed by western blot using anti-St6gal1 antibody (left panel). 7WD10-NotchΔE cells were treated with LME-tet at the indicated concentrations and γ-secretase inhibitor DAPT (γi; 10 µM) for 48 h; cell lysates were analyzed by western blot using anti-Myc antibody (right panel). […] Aβ33-FLAG (left) and Aβ (right) were measured by western blot using anti-Aβ antibody 82E1. […]

[2] = system: γ-cleavage of NotchΔE in 7WD10-NotchΔE cells; assay: γ-Secretase assay in cells (NotchΔE cleavage); assay type: cell-based, Chinese Hamster; conditions: 48 h, cell lysates, western blot with anti-Myc antibody; DAPT 10 µM
Procedure: as §2

SMILES: CSCC[C@H](NC(=O)[C@H](CCCNC(=N)N)NC(=O)[C@H](CC(C)C)NC(=O)[C@H](CCCCN)NC(=O)[C@@H]1CCCN1)C(=O)N[C@@H](CCCCN)C(=O)N[C@@H](CCC(=O)O)C(=O)NCCCCCC(=O)NCCCC[C@H](NC(=O)CCCCCNC(=O)[C@H](CCC(=O)O)NC(=O)[C@H](CCCCN)NC(=O)[C@H](CCSC)NC(=O)[C@H](CCCNC(=N)N)NC(=O)[C@H](CC(C)C)NC(=O)[C@H](CCCCN)NC(=O)[C@@H]1CCCN1)C(=O)NCCCC[C@H](NC(=O)[C@H](CCCCNC(=O)CCCCCNC(=O)[C@H](CCC(=O)O)NC(=O)[C@H](CCCCN)NC(=O)[C@H](CCSC)NC(=O)[C@H](CCCNC(=N)N)NC(=O)[C@H](CC(C)C)NC(=O)[C@H](CCCCN)NC(=O)[C@@H]1CCCN1)NC(=O)CCCCCNC(=O)[C@H](CCC(=O)O)NC(=O)[C@H](CCCCN)NC(=O)[C@H](CCSC)NC(=O)[C@H](CCCNC(=N)N)NC(=O)[C@H](CC(C)C)NC(=O)[C@H](CCCCN)NC(=O)[C@@H]1CCCN1)C(N)=O [LME-tet] (I: H-PKLRMKE[Ahx]KK-NH2 / II: H-PKLRMKE[Ahx]K / III: H-PKLRMKE[Ahx] / IV: H-PKLRMKE[Ahx]; amide I:9-IV:C, I:10-II:C, II:9-III:C)
- Kd (Aβ40): 2700 nM
- Kd (Aβ42): 200 nM
- efficiency of incorporation into cells (7WD10 cells): much higher efficacy than PME-tet

SMILES: CC(C)C[C@@H](C=O)NC(=O)[C@H](CC(C)C)NC(=O)[C@@H](NC(=O)OCc1ccccc1)C(C)C [β-secretase inhibitor II] (Cbz-Val-Leu-Leu-aldehyde)
- production of extracellular St6gal1 fragment [1]: completely suppressed

SMILES: C[C@H](NC(=O)Cc1cc(F)cc(F)c1)C(=O)N[C@H](C(=O)OC(C)(C)C)c1ccccc1 [DAPT]
- production of NICD [2]: efficiently inhibits
